Results taken from patent US20260217698A1 (BEYANG THERAPEUTICS CO., LTD., priority 2022, published 2026).
Values after ≈ are worked out from the molar mass of the structure shown.

Columns and labels:
EGFR = biological target: T1, EGFR (Homo sapiens, UniProt P00533); test: Kinase inhibition, Mobility Shift Assay/IMAP, EGFR; format: biochemical
T1 construct: purchased Carna 08-115
Outline: (§1)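 Substrate conversion (phosphorylated vs non-phosphorylated) read by mobility shift on Caliper EZ Reader II and converted to % inhibition relative to no-enzyme and DMSO controls. IC50 fitted from % inhibition versus log compound concentration.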

TIE2 = biological target: T2, TIE2 (Homo sapiens, UniProt Q02763); test: Kinase inhibition, Mobility Shift Assay/IMAP, TIE2; format: biochemical
T2 construct: purchased BPS 40270
Outline: as §1

melanin = test: Binding capacity of compounds to melanin; format: in vitro ADME, cuttlefish (Sepia officinalis); settings: cuttlefish (Sepia officinalis), melanin suspension (1 mg/mL); 1 mg/mL melanin in PBS pH 7.4, 2 μM compound, 2 h at 37° C.; read-out: Fu % (percentage of free drug)
Outline: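 Compound (2 μM final) incubated with washed Sepia melanin (1 mg/mL, PBS pH 7.4) 2 h at 37° C with shaking; PBS with 0.1% BSA served as blank. Supernatants quantified by LC-MS/MS; bound fraction Fb derived from melanin versus blank concentration.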

HUVEC cells = test: Inhibition of VEGF-induced HUVEC cell proliferation, CellTiter Glo; format: cell-based; settings: Homo sapiens, 20 ng/ml VEGF, 72 hours
Text: In this experiment, human umbilical vein endothelial cells (HUVEC, Lonza) were used. HUVEC cells are primary cells isolated from umbilical veins. This cell line is a model system to study the functions of endothelial cells. Endothelial cell proliferation in response to VEGF is crucial to the pathological angiogenesis associated with conditions such as tumor development and ocular neovascular diseases.
In this assay, a luciferase bioluminescence assay (CellTiter GLU™, Promega) is used to determine the inhibitory activity of the compounds against VEGF-induced HUVEC cell proliferation and viability. CellTiter GLO™ is a homogeneous method for quantifying the count of viable cells in culture based on ATP, an indicator of metabolically active cells. In this assay, the compound was incubated with HUVEC cells for 72 hours, and then the inhibitory activity of the resulting compound against VEGF-induced HUVEC cell proliferation was measured on the En Vision plate reader.
With the RPMI-1640 medium (plus 5% FBS, 1% Penicillin-Streptomycin) used for the HUVEC cell proliferation experiment, add a cell suspension to a 96-well plate at 100 μl per well, i.e., 4000 HUVEC cells/well, and incubate them overnight in a 5% CO2 incubator at 37° C. (serum starvation). After 24 hours, add 96 μl of the experimental medium to the cell wells, and then add 2 μl of the compound to the cell wells; and after 1 hour following the addition of the compound, add 2 μl of 2 μg/ml VEGF to the cell wells. Add 0.1% DMSO and 20 ng/ml VEGF to cell wells to serve as high-reading control wells. Take cell-free wells with only medium as low-reading control wells. […] After 72 hours of incubation of the cell plate in the incubator, hold the cell plate to be tested at room temperature and discard 100 μl of medium per well. Add 100 μl of CTG reagent (CellTiter Glo kit) per well, oscillate the cell plate in a fast oscillator for 3 minutes, and keep the cell plate at room temperature in the dark for 30 minutes. Read the chemiluminescence signal value with the Envision instrument.
X indicates the log value of compound concentration, Y indicates the inhibition rate (% inhibition), Top indicates the readout of the high-reading control well.

VEGFR2 = VEGFR2 (Homo sapiens, UniProt P35968); test: Kinase inhibition, Mobility Shift Assay/IMAP, VEGFR2; format: biochemical; set-up: purchased Carna 08-191
Outline: as §1

VEGFR3 = biological target: T3, VEGFR3 (Homo sapiens, UniProt P35916); test: Kinase inhibition, Mobility Shift Assay/IMAP, VEGFR3; format: biochemical
T3 construct: purchased Invitrogen PV4129
Text: (§2) This assay directly monitored the ability of compounds to inhibit kinase phosphorylation by measuring non-phosphorylated and phosphorylated substrates in kinase reactions by using Mobility Shift Assays/IMAP™ analysis.
(§3) Read the conversion ratio data on CaliperEZ Reader II. Convert conversion rates into inhibition ratio data.
(§4) “Min” indicates the readout of the control well without the addition of enzymes; and “Max” indicates the readout of the control well with the addition of DMSO Fit IC50 values with XL Fit excel add-in version […].
(§5) X indicates the log value of compound concentration, and Y indicates the inhibition ratio (% inhibition).

[1] = Solubility test in buffer, LC-MS; format: physicochemical; settings: aqueous buffer, thermodynamic from solid, room temperature, shaking 8 h, pH not given (method: pH 2.0, 6.5, 7.4)
Procedure: Accurately weigh 3 portions of about 2 mg of the compound, and add appropriate volumes of buffers with the pHs of 2.0, 6.5, and 7.4 respectively to obtain a solution with a concentration of 2 mg/mL. After sonication for 10 min, fix them on a shaker and shaking for 8 h at room temperature. After shaking, sonicate for 10 min and centrifuge for 15 min at 13,000 rpm. Pipette 0.1 mL of supernatant into a new tube, shake and rinse it with 5 mL, and discard the liquid. Transfer 0.5 mL of the supernatant again to a new tube, centrifuge it for 15 min at 13,000 rpm, then collect the supernatant (if necessary, dilute with water) and analyze it by LC-MS. The sample concentrations at 3~5 points are subjected to fitting and reticle for quantification.

VEGFR1 = biological target: T4, VEGFR1 (Homo sapiens, UniProt P17948); test: Kinase inhibition, Mobility Shift Assay/IMAP, VEGFR1; format: biochemical
T4 construct: purchased Invitrogen PR6731B
Text: as §2, §3, §4, §5

T1 sequence (P00533 669-1210 limits assumed): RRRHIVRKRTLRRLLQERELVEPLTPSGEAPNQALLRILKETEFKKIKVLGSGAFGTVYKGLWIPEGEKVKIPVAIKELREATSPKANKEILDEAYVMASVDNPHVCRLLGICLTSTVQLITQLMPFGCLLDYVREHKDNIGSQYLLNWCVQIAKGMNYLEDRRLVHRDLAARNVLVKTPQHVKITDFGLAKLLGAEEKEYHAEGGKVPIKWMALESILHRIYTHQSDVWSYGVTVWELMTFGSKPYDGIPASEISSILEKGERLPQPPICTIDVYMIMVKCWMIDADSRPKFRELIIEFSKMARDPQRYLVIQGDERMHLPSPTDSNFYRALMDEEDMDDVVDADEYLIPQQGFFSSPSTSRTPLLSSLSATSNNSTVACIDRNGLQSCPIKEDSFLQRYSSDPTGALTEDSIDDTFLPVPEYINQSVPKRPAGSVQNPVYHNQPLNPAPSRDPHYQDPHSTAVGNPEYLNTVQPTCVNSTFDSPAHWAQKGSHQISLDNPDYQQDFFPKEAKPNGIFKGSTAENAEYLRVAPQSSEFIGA
T3 sequence (P35916 25-1363): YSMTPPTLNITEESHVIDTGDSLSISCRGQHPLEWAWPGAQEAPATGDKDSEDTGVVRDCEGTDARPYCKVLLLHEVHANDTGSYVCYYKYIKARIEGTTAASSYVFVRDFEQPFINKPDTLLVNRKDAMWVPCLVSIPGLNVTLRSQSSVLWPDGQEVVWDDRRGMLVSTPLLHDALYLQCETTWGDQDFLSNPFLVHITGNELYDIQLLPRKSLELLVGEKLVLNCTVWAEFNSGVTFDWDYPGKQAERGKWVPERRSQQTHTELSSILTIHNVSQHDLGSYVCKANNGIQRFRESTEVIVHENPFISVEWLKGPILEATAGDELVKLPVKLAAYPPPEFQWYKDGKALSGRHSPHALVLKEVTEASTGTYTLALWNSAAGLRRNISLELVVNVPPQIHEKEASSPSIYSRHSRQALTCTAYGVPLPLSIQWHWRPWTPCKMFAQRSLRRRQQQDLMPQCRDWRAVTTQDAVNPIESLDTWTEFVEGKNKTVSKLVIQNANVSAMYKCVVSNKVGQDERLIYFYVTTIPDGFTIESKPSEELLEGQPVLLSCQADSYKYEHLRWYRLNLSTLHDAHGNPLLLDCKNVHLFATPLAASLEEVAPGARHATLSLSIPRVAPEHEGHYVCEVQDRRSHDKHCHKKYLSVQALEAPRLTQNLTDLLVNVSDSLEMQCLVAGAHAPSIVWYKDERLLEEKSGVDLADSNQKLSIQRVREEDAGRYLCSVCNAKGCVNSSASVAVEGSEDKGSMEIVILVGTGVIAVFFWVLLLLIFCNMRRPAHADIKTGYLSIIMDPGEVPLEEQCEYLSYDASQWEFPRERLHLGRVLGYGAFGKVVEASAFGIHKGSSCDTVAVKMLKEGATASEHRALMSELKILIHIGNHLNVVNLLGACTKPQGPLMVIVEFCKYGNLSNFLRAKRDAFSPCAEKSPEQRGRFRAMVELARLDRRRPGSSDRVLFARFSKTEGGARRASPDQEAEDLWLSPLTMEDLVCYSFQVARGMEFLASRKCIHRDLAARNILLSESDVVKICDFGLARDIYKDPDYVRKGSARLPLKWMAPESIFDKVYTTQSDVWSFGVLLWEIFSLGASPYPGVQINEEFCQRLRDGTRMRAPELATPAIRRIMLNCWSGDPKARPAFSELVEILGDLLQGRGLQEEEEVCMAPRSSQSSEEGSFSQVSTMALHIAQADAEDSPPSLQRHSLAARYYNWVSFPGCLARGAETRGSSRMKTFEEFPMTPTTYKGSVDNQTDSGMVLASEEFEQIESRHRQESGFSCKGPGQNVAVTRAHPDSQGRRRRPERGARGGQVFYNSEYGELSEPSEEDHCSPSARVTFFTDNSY
T2 sequence (Q02763 23-1124): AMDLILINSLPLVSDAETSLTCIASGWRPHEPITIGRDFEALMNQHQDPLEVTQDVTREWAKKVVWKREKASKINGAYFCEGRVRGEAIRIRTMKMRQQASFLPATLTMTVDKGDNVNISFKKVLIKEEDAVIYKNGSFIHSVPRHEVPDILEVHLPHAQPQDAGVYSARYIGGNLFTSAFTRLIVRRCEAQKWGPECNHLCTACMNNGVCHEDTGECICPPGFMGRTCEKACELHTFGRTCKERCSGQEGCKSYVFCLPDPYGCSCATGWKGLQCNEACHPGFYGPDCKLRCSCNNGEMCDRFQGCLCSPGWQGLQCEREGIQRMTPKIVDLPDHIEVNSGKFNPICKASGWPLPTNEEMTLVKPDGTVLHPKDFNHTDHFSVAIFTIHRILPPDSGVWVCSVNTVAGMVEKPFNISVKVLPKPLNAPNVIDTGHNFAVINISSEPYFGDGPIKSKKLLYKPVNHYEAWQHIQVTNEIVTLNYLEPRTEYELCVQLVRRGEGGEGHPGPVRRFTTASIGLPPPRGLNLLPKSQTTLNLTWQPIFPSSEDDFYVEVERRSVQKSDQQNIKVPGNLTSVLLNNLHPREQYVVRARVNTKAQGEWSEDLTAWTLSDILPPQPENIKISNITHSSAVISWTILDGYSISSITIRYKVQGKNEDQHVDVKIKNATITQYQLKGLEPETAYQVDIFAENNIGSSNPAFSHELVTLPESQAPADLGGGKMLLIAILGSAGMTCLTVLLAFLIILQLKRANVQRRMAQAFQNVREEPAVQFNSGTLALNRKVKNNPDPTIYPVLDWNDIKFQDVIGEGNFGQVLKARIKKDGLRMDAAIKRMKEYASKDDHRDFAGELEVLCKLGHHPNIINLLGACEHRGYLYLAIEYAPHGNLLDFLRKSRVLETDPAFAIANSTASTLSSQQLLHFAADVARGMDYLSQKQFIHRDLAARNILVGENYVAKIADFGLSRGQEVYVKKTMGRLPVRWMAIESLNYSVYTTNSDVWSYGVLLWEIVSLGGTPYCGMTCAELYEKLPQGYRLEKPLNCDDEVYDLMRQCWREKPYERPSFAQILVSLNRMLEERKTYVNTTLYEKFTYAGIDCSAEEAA
T4 sequence (P17948 27-1338): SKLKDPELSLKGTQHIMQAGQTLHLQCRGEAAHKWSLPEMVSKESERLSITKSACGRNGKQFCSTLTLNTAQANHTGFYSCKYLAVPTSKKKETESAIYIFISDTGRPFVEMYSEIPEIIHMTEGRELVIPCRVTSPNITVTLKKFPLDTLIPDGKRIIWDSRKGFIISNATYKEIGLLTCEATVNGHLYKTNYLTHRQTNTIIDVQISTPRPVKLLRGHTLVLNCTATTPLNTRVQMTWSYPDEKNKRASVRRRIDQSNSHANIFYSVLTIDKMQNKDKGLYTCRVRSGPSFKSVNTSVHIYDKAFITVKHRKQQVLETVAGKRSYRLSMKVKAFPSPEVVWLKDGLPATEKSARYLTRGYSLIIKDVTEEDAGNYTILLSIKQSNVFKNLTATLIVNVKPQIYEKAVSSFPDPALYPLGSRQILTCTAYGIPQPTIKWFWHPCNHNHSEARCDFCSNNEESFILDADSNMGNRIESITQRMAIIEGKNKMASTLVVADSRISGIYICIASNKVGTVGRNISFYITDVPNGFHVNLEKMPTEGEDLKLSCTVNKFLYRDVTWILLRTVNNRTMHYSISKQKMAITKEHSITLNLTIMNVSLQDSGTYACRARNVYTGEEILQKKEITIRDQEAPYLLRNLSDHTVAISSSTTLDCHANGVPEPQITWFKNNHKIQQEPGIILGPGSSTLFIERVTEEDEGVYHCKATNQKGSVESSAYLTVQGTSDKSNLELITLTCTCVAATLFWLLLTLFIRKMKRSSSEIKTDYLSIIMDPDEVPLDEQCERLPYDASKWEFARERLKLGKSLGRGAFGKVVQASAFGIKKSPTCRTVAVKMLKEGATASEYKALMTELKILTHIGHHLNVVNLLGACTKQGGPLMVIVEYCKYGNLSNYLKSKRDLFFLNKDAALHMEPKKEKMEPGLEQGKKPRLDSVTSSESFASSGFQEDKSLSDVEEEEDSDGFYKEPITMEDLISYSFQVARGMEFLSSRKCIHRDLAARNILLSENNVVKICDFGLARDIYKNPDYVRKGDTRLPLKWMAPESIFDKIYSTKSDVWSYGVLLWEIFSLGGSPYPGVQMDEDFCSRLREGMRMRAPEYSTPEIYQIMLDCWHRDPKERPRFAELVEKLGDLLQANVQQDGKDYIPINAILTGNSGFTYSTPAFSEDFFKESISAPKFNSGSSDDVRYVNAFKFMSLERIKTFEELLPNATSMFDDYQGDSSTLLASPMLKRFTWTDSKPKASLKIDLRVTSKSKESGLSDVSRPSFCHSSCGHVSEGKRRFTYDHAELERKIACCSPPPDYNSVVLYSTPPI
VEGFR2, sequence (P35968 790-1356 limits assumed): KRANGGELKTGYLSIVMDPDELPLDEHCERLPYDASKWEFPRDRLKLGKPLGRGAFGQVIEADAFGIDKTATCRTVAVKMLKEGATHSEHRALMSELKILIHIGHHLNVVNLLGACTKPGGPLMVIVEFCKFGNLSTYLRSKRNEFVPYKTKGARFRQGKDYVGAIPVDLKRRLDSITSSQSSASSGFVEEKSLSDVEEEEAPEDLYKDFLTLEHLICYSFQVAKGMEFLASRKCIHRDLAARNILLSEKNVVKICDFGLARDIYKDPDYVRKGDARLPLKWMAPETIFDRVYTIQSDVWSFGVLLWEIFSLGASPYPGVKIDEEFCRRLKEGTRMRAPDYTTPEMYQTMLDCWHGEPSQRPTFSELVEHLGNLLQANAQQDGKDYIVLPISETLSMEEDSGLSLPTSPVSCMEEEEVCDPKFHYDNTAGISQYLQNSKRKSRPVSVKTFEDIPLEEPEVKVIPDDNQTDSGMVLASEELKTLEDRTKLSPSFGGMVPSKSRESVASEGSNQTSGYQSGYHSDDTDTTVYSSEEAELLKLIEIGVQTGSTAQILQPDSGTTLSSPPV

NC(=O)c1c(OCc2cc3c(cc2F)CCO3)nsc1NC(=O)NCCCN1CC[C@H](F)C1 [Compound T119, 3-[(5-fluoro-2,3-dihydrobenzofuran-6-yl)methoxy]-5-[3-[(3S)-3-fluoropyrrolidin-1-yl]propylcarbamoylamino]isothiazole-4-carboxamide]
IC50 (EGFR): 19900 nM | IC50 (TIE2): 205 nM | fraction unbound at 2 h, 2 μM (melanin): 0.0202 | IC50 (HUVEC cells): 67 nM

COc1ccc(F)c(COc2nsc(NC(=O)NCCCCN3CC[C@@H](F)C3)c2C(N)=O)c1F [Compound T111, 3-[(2,6-difluoro-3-methoxy-phenyl)methoxy]-5-[4-[(3R)-3-fluoropyrrolidin-1-yl]butylcarbamoylamino]isothiazole-4-carboxamide]
IC50 (VEGFR2): 15.1 nM | IC50 (EGFR): 19800 nM | IC50 (TIE2): 223 nM | fraction unbound at 2 h, 2 μM (melanin): 0.0449 | IC50 (HUVEC cells): 32 nM

NC(=O)c1c(OCc2cccc(C(=O)NC3CC3)c2)nsc1NC(=O)NCCCN1CCCC1 [Compound T067, 3-((3-(cyclopropylcarbamoyl)benzyl)oxy)-5-(3-(3-(pyrrolidin-1-yl)propyl)ureido)isothiazole-4-carboxamide]
IC50 (VEGFR2): 8.86 nM | IC50 (EGFR): > 60000 nM | IC50 (VEGFR3): 30.1 nM | solubility at 8 h [1]: 977 µg/mL (≈ 2010 µM) | IC50 (VEGFR1): 9.43 nM

COc1ccc(F)c(COc2nsc(NC(=O)NCCCCN3CC[C@H](F)C3)c2C(N)=O)c1F [Compound T113, 3-[(2,6-difluoro-3-methoxy-phenyl)methoxy]-5-[4-[(3S)-3-fluoropyrrolidin-1-yl]butylcarbamoylamino]isothiazole-4-carboxamide]
IC50 (VEGFR2): 14.7 nM | IC50 (EGFR): 11800 nM | IC50 (TIE2): 163 nM | fraction unbound at 2 h, 2 μM (melanin): 0.0268 | IC50 (HUVEC cells): 27 nM

CN1CCC(CCNC(=O)Nc2snc(OCc3cc4c(cc3F)CCO4)c2C(N)=O)CC1 [Compound T073]
IC50 (VEGFR2): 2.73 nM | IC50 (EGFR): 4550 nM | IC50 (VEGFR3): 10.7 nM | IC50 (HUVEC cells): 26.9 nM | IC50 (VEGFR1): 5.99 nM

CNC(=O)c1cccc(COc2nsc(NC(=O)NCCC3CCN(C)CC3)c2C(N)=O)c1 [Compound T055, 3-((3-(methylcarbamoyl)benzyl)oxy)-5-(3-(2-(1-methylpiperidin-4-yl)ethyl)ureido)isothiazole-4-carboxamide]
IC50 (VEGFR2): 15.7 nM | IC50 (EGFR): 49700 nM | IC50 (VEGFR3): 39.3 nM | IC50 (TIE2): 3360 nM | solubility at 8 h [1]: 144 µg/mL (≈ 303 µM) | IC50 (VEGFR1): 7.7 nM

NC(=O)c1c(OCc2cc3c(cc2F)CCO3)nsc1NC(=O)NCCCCN1CC[C@H](O)C1 [Compound T090, 3-[(5-fluoro-2,3-dihydrobenzofuran-6-yl)methoxy]-5-[4-[(3S)-3-hydroxypyrrolidin-1-yl]butylcarbamoylamino]isothiazole-4-carboxamide]
IC50 (VEGFR2): 3.55 nM | IC50 (EGFR): 13900 nM | IC50 (VEGFR3): 13 nM | fraction unbound at 2 h, 2 μM (melanin): 0.025 | IC50 (HUVEC cells): 46.9 nM | IC50 (VEGFR1): 7.73 nM

NC(=O)c1c(OCc2cc3c(cc2F)CCO3)nsc1NC(=O)NCCCCN1CC[C@H](F)C1 [Compound T115, 3-[(5-fluoro-2,3-dihydrobenzofuran-6-yl)methoxy]-5-[4-[(3S)-3-fluoropyrrolidin-1-yl]butylcarbamoylamino]isothiazole-4-carboxamide]
IC50 (VEGFR2): 7.2 nM | IC50 (EGFR): 8220 nM | IC50 (TIE2): 117 nM | fraction unbound at 2 h, 2 μM (melanin): 0.0148 | IC50 (HUVEC cells): 36 nM

NC(=O)c1c(OCc2cc3c(cc2F)CCO3)nsc1NC(=O)NCCC1CCN(CCF)CC1 [Compound T103, 3-[(5-fluoro-2,3-dihydrobenzofuran-6-yl)methoxy]-5-[2-[1-(2-fluoroethyl)-4-piperidyl]ethylcarbamoylamino]isothiazole-4-carboxamide]
IC50 (VEGFR2): 4.96 nM | IC50 (EGFR): 5490 nM | IC50 (TIE2): 94.5 nM | fraction unbound at 2 h, 2 μM (melanin): 0.0229 | IC50 (HUVEC cells): 66 nM

CNC(=O)c1cccc(COc2nsc(NC(=O)NCCCCN3CCCC3)c2C(N)=O)c1 [Compound T049, 3-((3-(methylcarbamoyl)benzyl)oxy)-5-(3-(4-(pyrrolidin-1-yl)butyl)ureido)isothiazole-4-carboxamide]
IC50 (VEGFR2): 19.8 nM | IC50 (TIE2): 7560 nM | solubility at 8 h [1]: 2310 µg/mL (≈ 4880 µM) | IC50 (VEGFR1): 21.6 nM

NC(=O)c1c(OCc2cccc(C(=O)NC3CC3)c2)nsc1NC(=O)NCCCCN1CCCC1 [Compound T056, 3-((3-(cyclopropylcarbamoyl)benzyl)oxy)-5-(3-(4-(pyrrolidin-1-yl)butyl)ureido)isothiazole-4-carboxamide]
IC50 (VEGFR2): 4.69 nM | IC50 (EGFR): 50600 nM | IC50 (VEGFR3): 13.2 nM | fraction unbound at 2 h, 2 μM (melanin): 0.0183 | solubility at 8 h [1]: 2000 µg/mL (≈ 4000 µM) | IC50 (VEGFR1): 3.33 nM

COc1ccc(F)c(COc2nsc(NC(=O)NCCC3CCN(CCF)CC3)c2C(N)=O)c1F [Compound T112, 3-[(2,6-difluoro-3-methoxy-phenyl)methoxy]-5-[2-[1-(2-fluoroethyl)-4-piperidyl]ethylcarbamoylamino]isothiazole-4-carboxamide]
IC50 (VEGFR2): 14.6 nM | IC50 (EGFR): 10200 nM | IC50 (TIE2): 129 nM | fraction unbound at 2 h, 2 μM (melanin): 0.0222 | IC50 (HUVEC cells): 36 nM

CN1CCN(CCCNC(=O)Nc2snc(OCc3cccc(C(=O)NC4CC4)c3)c2C(N)=O)CC1 [Compound T069, 3-((3-(cyclopropylcarbamoyl)benzyl)oxy)-5-(3-(3-(4-methylpiperazin-1-yl)propyl)ureido)isothiazole-4-carboxamide]
IC50 (VEGFR2): 2.77 nM | IC50 (EGFR): > 60000 nM | IC50 (VEGFR3): 14.6 nM | IC50 (TIE2): 3510 nM | solubility at 8 h [1]: 633 µg/mL (≈ 1230 µM) | IC50 (VEGFR1): 5.48 nM

CN1CCN(CCNC(=O)Nc2snc(OCc3cccc(C(=O)NC4CC4)c3)c2C(N)=O)CC1 [Compound T065, 3-((3-(cyclopropylcarbamoyl)benzyl)oxy)-5-(3-(2-(4-methylpiperazin-1-yl)ethyl)ureido)isothiazole-4-carboxamide]
IC50 (VEGFR2): 9.95 nM | IC50 (EGFR): ≥ 60000 nM | IC50 (VEGFR3): 24.1 nM | IC50 (TIE2): 5430 nM | solubility at 8 h [1]: 782 µg/mL (≈ 1560 µM) | IC50 (VEGFR1): 6.55 nM

NC(=O)c1c(OCc2ccc(F)c(C(=O)NC3CC3)c2)nsc1NC(=O)NCCCN1CC[C@H](F)C1 [Compound T152, 3-[[3-(cyclopropylcarbamoyl)-4-fluoro-phenyl]methoxy]-5-[3-[(3S)-3-fluoropyrrolidin-1-yl]propylcarbamoylamino]isothiazole-4-carboxamide]
IC50 (VEGFR2): 3.53 nM | IC50 (EGFR): 24000 nM | IC50 (VEGFR3): 12.8 nM | solubility at 8 h [1]: 815 µg/mL (≈ 1560 µM) | IC50 (VEGFR1): 2.25 nM

CNC(=O)c1cc(COc2nsc(NC(=O)NCCCCN3CCCC3)c2C(N)=O)ccc1F [Compound T070, 3-((4-fluoro-3-(methylcarbamoyl)benzyl)oxy)-5-(3-(4-(pyrrolidin-1-yl)butyl)ureido)isothiazole-4-carboxamide]
IC50 (VEGFR2): 12 nM | IC50 (EGFR): > 60000 nM | IC50 (VEGFR3): 50.1 nM | IC50 (TIE2): 7800 nM | solubility at 8 h [1]: 927 µg/mL (≈ 1880 µM) | IC50 (VEGFR1): 9.14 nM
